The values below come from patent publication US8916702B2 (priority 2012, dated 2014).

Where two headings read alike, the source gives them in different places.

The subject of this experiment is HCV pseudoparticles (genotype 1a HCV E1 and E2 envelope, H77C isolate). The experiment is described as follows: microbe, parasite or virus in culture. Type of experiment: cell-based. The note with it: Hepatitis C virus.
[1] abbreviates: Huh-7, 48 h, HCV pseudoparticles (genotype 1a, H77C) in Huh7 cells, average of duplicate, luciferase 2 days after infection.
The mark [2] stands for this setting: Huh-7, read-out: Activity (EC50 class), HCV pseudoparticles (genotype 1a, H77C) in Huh7 cells, EC50 expressed as class A/B.
[3] abbreviates: Huh-7, 48 h, read-out: Activity (EC50 class), HCV pseudoparticle infection of Huh7 cells, luciferase 2 days after infection, EC50 expressed as class A/B.
[4] abbreviates: Huh-7, 48 h, read-out: Activity (EC50 class), HCV pseudoparticles, Huh7 cells, luciferase 2 days after infection, average of duplicates.

For orientation: EC50 means the concentration giving half of the maximal effect. Turning to `COC(=O)[C@H](CNC(=O)C(=O)Nc1ccc(-c2cc[nH]n2)cc1)NC(=O)c1ccc(Nc2nc(NC3(c4ccc(Cl)cc4)CC3)nc(OCC(F)(F)F)n2)cc1` [Compound 3193], the EC50 under setting [1] was determined as 1.03 nM and the EC50 under setting [2] was 0.01 to 10 nM.

Regarding `COC(=O)[C@H](CCNC(=O)C(=O)NCCc1c[nH]cn1)NC(=O)c1ccc(Nc2nc(NC3(c4ccc(Cl)cc4)CC3)nc(OCC(F)(F)F)n2)cc1` [Compound 1318], under setting [3], the EC50 was in the range of 0.01 to 10 nM.

Regarding `COC(=O)[C@H](CNC(=O)C(=O)Nc1ccc(-c2ccc(C#N)cc2)cc1)NC(=O)c1ccc(Nc2nc(NC3(c4ccc(Cl)cc4)CC3)nc(OCC(F)(F)F)n2)cc1` [Compound 3103], the EC50 under setting [2] was 0.01 to 10 nM.

For the compound `O=C(NC[C@H](NC(=O)c1ccc(Nc2nc(NC3(c4ccc(Cl)cc4)CC3)nc(OCC(F)(F)F)n2)cc1)C(=O)O)C(=O)Nc1cccc(S(=O)(=O)C(F)(F)F)c1` [Compound 3766], under setting [4], the EC50 fell in the range of 0.01 to 10 nM.

Take `CC(C)(CNC(=O)c1ccc(Nc2nc(NC3(c4ccc(Cl)cc4)CC3)nc(OCC(F)(F)F)n2)cc1)NC(=O)C(=O)Nc1ccccc1` [Compound 3425]: the midpoint of the response under setting [1], the EC50, lay at 0.033 nM and the EC50 under setting [2] lay within 0.01 to 10 nM.

For the compound `CC(C)(CNC(=O)C(=O)NCc1ccc(Cl)cc1)CNC(=O)c1ccc(Nc2nc(NC3(c4ccc(Cl)cc4)CC3)nc(OCC(F)(F)F)n2)cc1` [Compound 3009], under setting [2], the EC50 was in the range of 0.01 to 10 nM.

As to `O=C(NCC[C@@H](NC(=O)c1ccc(Nc2nc(NC3(c4ccc(Cl)cc4)CC3)nc(OCC(F)(F)F)n2)cc1)C(=O)O)C(=O)Nc1ccc(F)c(F)c1F` [Compound 1538], the EC50 under setting [3] was in the range of 0.01 to 10 nM.

Take `O=C(NCCCNC(=O)c1ccc(Nc2nc(NC3(c4ccc(Cl)cc4)CC3)nc(OCC(F)(F)F)n2)cc1)C(=O)Nc1ccc(F)cc1` [Compound 3360]: the concentration giving a half-maximal response (EC50) under setting [2] was 0.01 to 10 nM.

In the case of `COC(=O)[C@@H](CCNC(=O)C(=O)NCC1(CN2CCN(C)CC2)CC1)NC(=O)c1ccc(Nc2nc(NC3(c4ccc(Cl)cc4)CC3)nc(OCC(F)(F)F)n2)cc1` [Compound 1388], the EC50 under setting [3] was in the range of 0.01 to 10 nM.

Take `COC(=O)[C@@H](CCNC(=O)C(=O)Nc1cccc(OCc2ccccc2)c1)NC(=O)c1ccc(Nc2nc(NC3(c4ccc(Cl)cc4)CC3)nc(OCC(F)(F)F)n2)cc1` [Compound 3571]: the half-maximal effective concentration (EC50) under setting [2] fell in the range of 0.01 to 10 nM.

Take `O=C(NCC[C@H](NC(=O)c1ccc(Nc2nc(NC3(c4ccc(Cl)cc4)CC3)nc(OCC(F)(F)F)n2)cc1)C(=O)O)C(=O)NC1CCCCC1` [Compound 1179]: the EC50 under setting [3] lay in the range of 0.01 to 10 nM.

For `O=C(NC[C@H](NC(=O)c1ccc(Nc2nc(NC3(c4ccc(Cl)cc4)CC3)nc(OCC(F)(F)F)n2)cc1)C(=O)O)C(=O)NC1(Cc2ccccc2)CC1` [Compound 1415], under setting [3], the EC50 lay in the range of 0.01 to 10 nM.

Turning to `C[C@]12C3C1[C@H]3C[C@H]2NC(=O)C(=O)NC[C@H](NC(=O)c1ccc(Nc2nc(NC3(c4ccc(Cl)cc4)CC3)nc(OCC(F)(F)F)n2)cc1)C(=O)O` (stereo partly drawn) [Compound 1084], the EC50 (Huh-7, 48 h, HCV pseudoparticle infection of Huh7 cells, luciferase 2 days after infection, average of duplicates) came out at 0.26 nM and the EC50 under setting [3] lay in the range of 0.01 to 10 nM.

Turning to `Cc1cc(NC(=O)C(=O)NCCCNC(=O)c2ccc(Nc3nc(NC4(c5ccc(Cl)cc5)CC4)nc(OCC(F)(F)F)n3)cc2)no1` [Compound 3343], the EC50 under setting [2] lay within 0.01 to 10 nM.

In the case of `COC(=O)[C@H](CNC(=O)C(=O)Nc1cccc(C(N)=O)c1)NC(=O)c1ccc(Nc2nc(NC3(c4ccc(Cl)cc4)CC3)nc(OCC(F)(F)F)n2)cc1` [Compound 3689], the EC50 under setting [4] fell in the range of 0.01 to 10 nM.

For `COC(=O)[C@H](CNC(=O)C(=O)Nc1cccc(-c2ccncc2)c1)NC(=O)c1ccc(Nc2nc(NC3(c4ccc(Cl)cc4)CC3)nc(OCC(F)(F)F)n2)cc1` [Compound 3712], the EC50 under setting [4] was 0.01 to 10 nM.

As to `O=C(NCC[C@H](NC(=O)c1ccc(Nc2nc(NC3(c4ccc(Cl)cc4)CC3)nc(OCC(F)(F)F)n2)cc1)C(=O)O)C(=O)Nc1ccc(-n2cnc(Cl)c2Cl)cc1` [Compound 3225], the EC50 reads like this: under setting [1], 17 nM; under setting [2], 10 to 1000 nM.

On to `COc1cc(Nc2nc(NC3(c4ccc(Cl)cc4)CC3)nc(OCC(F)(F)F)n2)ccc1C(=O)NCC(C)(C)CNC(=O)C(N)=O` [Compound 3387], for which the EC50 was 0.068 nM under setting [1] and 0.01 to 10 nM under setting [2].

On to `CC(C)(CNC(=O)C(=O)Nc1cc(F)c(F)c(F)c1)CNC(=O)c1ccc(Nc2nc(NC3(c4ccc(Cl)cc4)CC3)nc(OCC(F)(F)F)n2)cc1` [Compound 1558], for which the EC50 under setting [3] lay within 0.01 to 10 nM.

Regarding `Cc1ccc(NC(=O)C(=O)N(C)CCCNC(=O)c2ccc(Nc3nc(NC4(c5ccc(Cl)cc5)CC4)nc(OCC(F)(F)F)n3)cc2)cc1` [Compound 3445], the EC50 by setting is: under setting [1], 0.061 nM; under setting [2], 0.01 to 10 nM.

Take `O=C(NCC[C@H](NC(=O)c1ccc(Nc2nc(NC3(c4ccc(Cl)cc4)CC3)nc(OCC(F)(F)F)n2)cc1)C(=O)O)C(=O)NCc1cccc(F)c1F` [Compound 1177]: under setting [3], the EC50 was in the range of 0.01 to 10 nM.

Take `CCC(CC)CNC(=O)C(=O)NCC[C@H](NC(=O)c1ccc(Nc2nc(NC3(c4ccc(Cl)cc4)CC3)nc(OCC(F)(F)F)n2)cc1)C(=O)OC` [Compound 1202]: the half-maximal effective concentration (EC50) under setting [3] was 0.01 to 10 nM.

As for `O=C(NCC[C@@H](NC(=O)c1ccc(Nc2nc(NC3(c4ccc(Cl)cc4)CC3)nc(OCC(F)(F)F)n2)cc1)C(=O)O)C(=O)Nc1ccccc1Cl` [Compound 1534], the EC50 under setting [3] lay in the range of 0.01 to 10 nM.

In the case of `Cc1nnnn1-c1ccc(NC(=O)C(=O)NCC[C@H](NC(=O)c2ccc(Nc3nc(NC4(c5ccc(Cl)cc5)CC4)nc(OCC(F)(F)F)n3)cc2)C(=O)O)cc1` [Compound 3236], under setting [2], the EC50 lay in the range of 0.01 to 10 nM.

`CN(C)CCNC(=O)C(=O)NC[C@@H](NC(=O)c1ccc(Nc2nc(NC3(c4ccc(Cl)cc4)CC3)nc(OCC(F)(F)F)n2)cc1)C(=O)O` [Compound 1045]: under setting [3], the EC50 fell in the range of 0.01 to 10 nM.

For `C=Cc1cccc(NC(=O)C(=O)NCC[C@@H](NC(=O)c2ccc(Nc3nc(NC4(c5ccc(Cl)cc5)CC4)nc(OCC(F)(F)F)n3)cc2)C(=O)OC)c1` [Compound 3574], under setting [2], the EC50 lay within 0.01 to 10 nM.

Take `O=C(NCC[C@H](NC(=O)c1ccc(Nc2nc(NC3(c4ccc(Cl)cc4)CC3)nc(OCC(F)(F)F)n2)cc1)C(=O)O)C(=O)Nc1cccc(CN2CCCC2)c1` [Compound 3647]: the EC50 under setting [4] fell in the range of 0.01 to 10 nM.

Consider `COC(=O)[C@H](CNC(=O)C(=O)Nc1cccc(CN2CCCC2)c1)NC(=O)c1ccc(Nc2nc(NC3(c4ccc(Cl)cc4)CC3)nc(OCC(F)(F)F)n2)cc1` [Compound 3723], for which the EC50 reads like this: (Huh-7, 48 h, HCV pseudoparticles, Huh7 cells, luciferase 2 days after infection, average of duplicates) 1.34 nM; under setting [4], 0.01 to 10 nM.

For `COC(=O)[C@H](CNC(=O)C(=O)Nc1ccc(N2CCN(C(C)=O)CC2)cc1)NC(=O)c1ccc(Nc2nc(NC3(c4ccc(Cl)cc4)CC3)nc(OCC(F)(F)F)n2)cc1` [Compound 3186], the EC50 is, setting by setting: under setting [1], 0.7 nM; under setting [2], 0.01 to 10 nM.

`NC(=O)NCc1ccc(NC(=O)C(=O)NCCC(NC(=O)c2ccc(Nc3nc(NC4(c5ccc(Cl)cc5)CC4)nc(OCC(F)(F)F)n3)cc2)C(=O)O)cc1` (stereo not drawn) [Compound 3535]: under setting [2], the EC50 is 0.01 to 10 nM.

With `CC(C)(CNC(=O)C(=O)Nc1ccc(CCCC(=O)O)cc1)CNC(=O)c1ccc(Nc2nc(NC3(c4ccc(Cl)cc4)CC3)nc(OCC(F)(F)F)n2)cc1` [Compound 3361], it took 0.16 nM to reach a half-maximal effect under setting [1] (EC50) and the EC50 under setting [2] fell in the range of 0.01 to 10 nM.

For `CC(C)(CNC(=O)C(=O)NC1(c2ccc(F)cc2)CC1)CNC(=O)c1ccc(Nc2nc(NC3(c4ccc(Cl)cc4)CC3)nc(OCC(F)(F)F)n2)cc1` [Compound 3013], the EC50 is, setting by setting: under setting [1], 0.066 nM; under setting [2], 0.01 to 10 nM.

On to `COC(=O)[C@H](CCNC(=O)C(=O)Nc1ccc(N2CCC(C(C)=O)CC2)cc1)NC(=O)c1ccc(Nc2nc(NC3(c4ccc(Cl)cc4)CC3)nc(OCC(F)(F)F)n2)cc1` [Compound 3303], for which the EC50 reads like this: under setting [1], 5.59 nM; under setting [2], 0.01 to 10 nM.

As to `COC(=O)[C@H](CNC(=O)C(=O)Nc1cccnc1)NC(=O)c1ccc(Nc2nc(NC3(c4ccc(Cl)cc4)CC3)nc(OCC(F)(F)F)n2)cc1` [Compound 1259], the EC50 under setting [3] lay in the range of 0.01 to 10 nM.

With `CC1CCC(NC(=O)C(=O)NCC[C@H](NC(=O)c2ccc(Nc3nc(NC4(c5ccc(Cl)cc5)CC4)nc(OCC(F)(F)F)n3)cc2)C(=O)O)CC1` (stereo partly drawn) [Compound 1129], the EC50 under setting [3] lay in the range of 0.01 to 10 nM.

On to `COc1cc2nc(NC(=O)C(=O)NCC(C)(C)CNC(=O)c3ccc(Nc4nc(NC5(c6ccc(Cl)cc6)CC5)nc(OCC(F)(F)F)n4)cc3)sc2cc1OC` [Compound 3665], for which, under setting [4], the EC50 lay within 0.01 to 10 nM.

`COC(=O)[C@H](CNC(=O)C(=O)Nc1cccc(S(C)(=O)=O)c1)NC(=O)c1ccc(Nc2nc(NC3(c4ccc(Cl)cc4)CC3)nc(OCC(F)(F)F)n2)cc1` [Compound 3707]: under setting [4], the EC50 is 0.01 to 10 nM.

For `CC(C)(CNC(=O)C(=O)Nc1ccc(-c2ccc(F)cc2)cc1)CNC(=O)c1ccc(Nc2nc(NC3(c4ccc(Cl)cc4)CC3)nc(OCC(F)(F)F)n2)cc1` [Compound 1569], the EC50 under setting [3] was 0.01 to 10 nM.

For the compound `O=C(NC[C@H](NC(=O)c1ccc(Nc2nc(NC3(c4ccc(Cl)cc4)CC3)nc(OCC(F)(F)F)n2)cc1)C(=O)Cl)C(=O)Nc1cccc(C(=O)Nc2ccccc2)c1` [Compound 3747], the EC50 under setting [4] was 0.01 to 10 nM.

As to `COc1ccc(NC(=O)C(=O)NCC(C)(C)CNC(=O)c2ccc(Nc3nc(NC4(c5ccc(Cl)cc5)CC4)nc(OCC(F)(F)F)n3)cc2)c(OC)c1` [Compound 3067], under setting [2], the EC50 was 0.01 to 10 nM.

As for `COC(=O)[C@H](CNC(=O)C(=O)Nc1ccc(OC2CCOCC2)cc1)NC(=O)c1ccc(Nc2nc(NC3(c4ccc(Cl)cc4)CC3)nc(OCC(F)(F)F)n2)cc1` [Compound 3208], under setting [2], the half-maximal effective concentration (EC50) lay in the range of 0.01 to 10 nM.

On to `Cc1cc(C)n(-c2ccccc2NC(=O)C(=O)NCC(C)(C)CNC(=O)c2ccc(Nc3nc(NC4(c5ccc(Cl)cc5)CC4)nc(OCC(F)(F)F)n3)cc2)n1` [Compound 3177], for which, under setting [2], the EC50 lay within 0.01 to 10 nM.

As to `O=C(NC[C@H](NC(=O)c1ccc(Nc2nc(NC3(c4ccc(Cl)cc4)CC3)nc(OCC(F)(F)F)n2)cc1)C(=O)O)C(=O)NC1CCCCC1O` (stereo partly drawn) [Compound 1081], the EC50 under setting [3] fell in the range of 0.01 to 10 nM.
